In US20250025438A1, “Derivative of aspartic acid and use thereof in treatment of metabolic diseases such as hepatic fibrosis and non-alcoholic hepatitis” (SHENZHEN JINGTAI TECHNOLOGY CO., LTD., priority 2021, published 2025):

Key:
Assay type in all cases: cell-based
α-SMA = experiment: In vitro efficacy in semi-activated LX2 cells, qPCR: α-SMA; details: 50 µM, 48 hours, Q-PCR, read-out: α-SMA mRNA inhibition rate
Method: (§1) Test compounds were added to the LX-2 cells respectively, and total RNA in the cells was extracted 48 hours later. This experiment was performed strictly in accordance with the instructions of the Total RNA Kit. The steps were as follows (note: this experiment was performed on ice throughout the entire process, and special RNase-free tips were used throughout the entire process): • 1) The 12-well cell culture plate was taken out from the incubator, the cell culture medium was discarded, the cells were washed twice with 1 mL of 1×PBS, and a negative pressure suction device was used to fully remove PBS; • 2) 350 μL of TRK Lysis Buffer mixture/well was prepared as needed (mixture preparation method: 1 mL of TRKLysis Buffer+20 μL of β-mercaptoethanol), vortexed and mixed well. 350 μL was added to each well of the 12-well cell culture plate, and allowed to stand at room temperature for 5 minutes to fully lyse the cells; • 3) 70% ethanol/well was prepared as needed, vortexed and mixed well. 350 μL was added to each well of the 12-well cell culture plate, mixed well by shaking, and transferred to the spin column (spin column+collection tube were assembled); • 4) Centrifugation was performed at 4° C., 12000 g for 60 sec. The waste liquid was discarded after centrifugation, while the spin column was kept; • 5) 500 μL of RNA Wash Buffer I was added, centrifuged at 4° C., 12000 g for 60 sec, the waste liquid was discarded after centrifugation, and the collection column was kept; • 6) 500 μL of RNA Wash Buffer II (confirmed that ethanol had been added) was added, centrifuged at 4° C., 12000 g for 60 sec, the waste liquid was discarded after centrifugation, and the collection column was kept; • 7) step 6) was repeated once again, centrifugation was performed at 4° C., 12000 g for 90 sec, the waste liquid was discarded after centrifugation, and the collection column was kept; • 8) Centrifugation was performed at 4° C., 12000 g for 120 sec to ensure that the spin column was fully dried; • 9) The dried spin column was inserted into a new 1.5 mL EP tube, and 30 μL of DEPC water was added to the membrane in the center of the spin column. It should be careful not to touch the EP tube cover in this step. It was allowed to stand at room temperature for 5 minutes to ensure that the RNA was fully dissolved in DEPC water. Centrifugation was performed at 4° C., 12000 g for 60 sec, and the EP tube was kept; • 10) NanoDrop ultra-micro-volume spectrophotometer was used to detect RNA concentration;
(§2) 5.2 Reverse transcription of RNA into cDNA: According to the instructions of PrimeScript™ RT reagent Kit (Perfect Real Time), the specific experimental steps were as follows:
(§3) 5.3 Q-PCR detection of target gene expression: According to the instructions of Power SYBR® Green PCR Master Mix, the specific operations were as follows:
(§4) After the reaction was completed, the amplification curve and dissolution curve of Q-PCR were confirmed, and the relative quantification method ([…]) was used to perform data analysis on the experimental results.
(§5) LX2 cells were passaged and plated normally. […] After 48 hours, the cells were collected, total RNA was extracted, and Q-PCR was used to detect the changes in the mRNA expression levels of liver fibrosis-related genes (ACTA2 encoding α-SMA, COL1A1 and COLIA2 encoding collagen I, COL3A1 encoding collagen III, SMAD3 encoding Smad3) and inflammation-related genes (IL1β encoding IL-1β, TNFα encoding TNFα) (for specific methods, see 5. Q-PCR detection of target gene expression as described above). α-SMA was a marker of hepatic stellate cell activation, and collagen I and collagen III were the main components of extracellular matrix deposition.

COL1A1 = experiment: In vitro efficacy in semi-activated LX2 cells, qPCR: COL1A1; details: Homo sapiens, LX-2, 50 µM, 48 hours, Q-PCR, read-out: COL1A1 mRNA inhibition rate
Method: as §1, §2, §3, §4, §5

Smad3 = experiment: In vitro efficacy in semi-activated LX2 cells, qPCR: Smad3; details: 48 hours, Q-PCR; for inhibition of the expression of Smad3 at the mRNA level: Table 2; for inhibition at 50 µM: Homo sapiens, LX-2, 50 µM, read-out: Smad3 mRNA inhibition rate
Method: as §1, §2, §3, §4, §5

TNF-α = experiment: In vitro efficacy in semi-activated LX2 cells, qPCR: TNF-α; details: Homo sapiens, LX-2, 48 hours, Q-PCR, read-out: TNF-α mRNA inhibition rate
Method: as §1, §2, §3, §4
(§6) LX2 cells were passaged and plated normally. After adherent growth for 12 hours, 50 µM of the test compound was added. After 48 hours, the cells were collected, total RNA was extracted, and Q-PCR was used to detect the changes in the mRNA expression levels of liver fibrosis-related genes (ACTA2 encoding α-SMA, COL1A1 and COLIA2 encoding collagen I, COL3A1 encoding collagen III, SMAD3 encoding Smad3) and inflammation-related genes (IL1β encoding IL-1β, TNFα encoding TNFα) (for specific methods, see 5. Q-PCR detection of target gene expression as described above). α-SMA was a marker of hepatic stellate cell activation, and collagen I and collagen III were the main components of extracellular matrix deposition.

COL3A1 = experiment: In vitro efficacy in semi-activated LX2 cells, qPCR: COL3A1; details: Homo sapiens, LX-2, 50 µM, 48 hours, Q-PCR, read-out: COL3A1 mRNA inhibition rate
Method: as §1, §2, §3, §4, §5

IL-1β = experiment: In vitro efficacy in semi-activated LX2 cells, qPCR: IL-1β; details: Homo sapiens, LX-2, 50 µM, 48 hours, Q-PCR, read-out: IL-1β mRNA inhibition rate
Method: as §1, §2, §3, §4, §5

[1] = tested on: collagen I and collagen III; experiment: Semi-activated LX2 cells, qPCR: collagen I and collagen III at the mRNA level; details: 48 hours, Q-PCR, Table 2
Method: as §1, §3
as §6, with “deposition. […]” for “deposition.”

COL1A2 = experiment: In vitro efficacy in semi-activated LX2 cells, qPCR: COL1A2; details: Homo sapiens, LX-2, 48 hours, Q-PCR, read-out: COL1A2 mRNA inhibition rate
Method: as §1, §2, §3, §4, §6

| Structure (SMILES) | inhibition at 50 µM (α-SMA) [%] | inhibition at 50 µM (COL1A1) [%] | inhibition of the expression of Smad3 at the mRNA level (Smad3) | inhibition at 50 µM (Smad3) [%] | inhibition at 50 µM (TNF-α) [%] | inhibition at 50 µM (COL3A1) [%] | inhibition at 50 µM (IL-1β) [%] | inhibition of the expression of collagen I and collagen III at the mRNA level [1] | inhibition at 50 µM (COL1A2) [%] |
| --- | --- | --- | --- | --- | --- | --- | --- | --- | --- |
| CC(C)(C)OC(=O)N[C@@H](CC(=O)O)C(=O)O [Compound 1] | 1 to 10 | 1 to 10 | could inhibit | 10 to 25 | 1 to 10 | – | – | – | – |
| COC(=O)C[C@H](NC(=O)OC(C)(C)C)C(=O)O [Compound 8] | – | 10 to 25 | – | 1 to 10 | – | 10 to 25 | 1 to 10 | could inhibit | – |
| COC(=O)C[C@H](NC(=O)OCC1c2ccccc2-c2ccccc21)C(=O)O [Compound 9] | 1 to 10 | – | could inhibit | 10 to 25 | – | – | 25 to 50 | – | – |
| C=CCOC(=O)C[C@H](NC(=O)OCC1c2ccccc2-c2ccccc21)C(=O)O [Compound 11] | – | – | – | 1 to 10 | 1 to 10 | – | 25 to 50 | – | – |
| CC(C)(C)OC(=O)[C@@H](N)CC(=O)O [Compound 14] | – | 10 to 25 | – | – | 1 to 10 | 1 to 10 | – | could inhibit | – |
| COC(=O)[C@@H](N)CC(=O)OC(C)(C)C [Compound 15] | 1 to 10 | 10 to 25 | could inhibit | 10 to 25 | 1 to 10 | 10 to 25 | – | could inhibit | – |
| CC(C)(C)OC(=O)C[C@H](NC(=O)OCc1ccccc1)C(=O)O [Compound 16] | – | 1 to 10 | – | – | 1 to 10 | – | – | – | – |
| CC(C)(C)OC(=O)C[C@H](NC(=O)OC(C)(C)C)C(=O)O [Compound 17] | 1 to 10 | 1 to 10 | – | 1 to 10 | 10 to 25 | – | – | – | – |
| CC(C)(C)OC(=O)C[C@H](NC(=O)OCC1c2ccccc2-c2ccccc21)C(=O)O [Compound 18] | – | 10 to 25 | – | – | – | 1 to 10 | – | could inhibit | 1 to 10 |
| CN(C(=O)OCC1c2ccccc2-c2ccccc21)[C@@H](CC(=O)OC(C)(C)C)C(=O)O [Compound 19] | – | 10 to 25 | – | – | – | 10 to 25 | – | could inhibit | 10 to 25 |
